Reference: patent US6737383B1, “Herbicidal oxadiazolidines” (priority 1999, dated 2004)

Legend:
soybean = experiment: Test B pre/postemergence soybean; format: in vivo, Glycine max
Summary of the method: (§1)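 Test chemicals in a non-phytotoxic solvent mixture with surfactant were sprayed preemergence onto planted seeds and postemergence onto plants 2 to 18 cm tall (1- to 4-leaf stage). After twelve to sixteen days in a greenhouse, injury was visually rated against untreated controls from 0 (no effect) to 10 (complete control).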

wild oat = experiment: Test B pre/postemergence wild oat; format: in vivo, Avena fatua
Summary of the method: as §1

giant foxtail = experiment: Test B pre/postemergence giant foxtail; format: in vivo, Setaria faberii
Summary of the method: as §1

corn = experiment: Test B pre/postemergence corn; format: in vivo, Zea mays
Summary of the method: as §1

pigweed = experiment: Test B pre/postemergence pigweed; format: in vivo, Amaranthus retroflexus
Summary of the method: as §1

rape = experiment: Test B pre/postemergence rape; format: in vivo, Brassica napus
Summary of the method: as §1

cocklebur = experiment: Test B pre/postemergence cocklebur; format: in vivo, Xanthium strumarium
Summary of the method: as §1

bedstraw = experiment: Test B pre/postemergence bedstraw; format: in vivo, Galium aparine
Summary of the method: as §1

morningglory = experiment: Test B pre/postemergence morningglory; format: in vivo, Ipomoea hederacea
Summary of the method: as §1

wheat = experiment: Test B pre/postemergence wheat; format: in vivo, Triticum aestivum
Summary of the method: as §1

purple nutsedge = experiment: Test B pre/postemergence purple nutsedge; format: in vivo, Cyperus rotundus
Summary of the method: as §1

sugar beet = experiment: Test B pre/postemergence sugar beet; format: in vivo, Beta vulgaris
Summary of the method: as §1

crabgrass = experiment: Test B pre/postemergence crabgrass; format: in vivo, Digitaria sanguinalis
Summary of the method: as §1

surinam grass = experiment: Test B pre/postemergence surinam grass; format: in vivo, Brachiaria decumbens
Summary of the method: as §1

blackgrass = experiment: Test B pre/postemergence blackgrass; format: in vivo, Alopecurus myosuroides
Summary of the method: as §1

velvetleaf = experiment: Test B pre/postemergence velvetleaf; format: in vivo, Abutilon theophrasti
Summary of the method: as §1

[1] = Postemergence, Rate 62 g/ha, scale 0 to 10, 0 is no effect, 10 is complete control
[2] = Postemergence, Rate 125 g/ha, scale of 0 to 10 where 0 is no effect and 10 is complete control
[3] = Postemergence, Rate 250 g/ha, scale of 0 to 10, 0 is no effect, 10 is complete control
[4] = Preemergence, Rate 62 g/ha, scale of 0 to 10 where 0 is no effect and 10 is complete control
[5] = Preemergence, Rate 125 g/ha, scale of 0 to 10 where 0 is no effect and 10 is complete control
[6] = Preemergence, Rate 250 g/ha, scale 0 to 10 (0 no effect, 10 complete control)
[7] = Preemergence, Rate 500 g/ha, scale of 0 to 10 where 0 is no effect and 10 is complete control
[8] = Postemergence, Rate 500 g/ha, scale of 0 to 10 where 0 is no effect and 10 is complete control
[9] = Preemergence, Rate 250 g/ha, scale 0 (no effect) to 10 (complete control)
[10] = Rate 62 g/ha, Preemergence, scale 0 to 10
[11] = Rate 500 g/ha, Preemergence, scale 0 to 10 (0 no effect, 10 complete control)

For `CCCCn1c(=O)on(C(=O)N(c2ccc(F)cc2F)C(C)C)c1=O` [Compound 635], the “Plant response rating, Soybean” value (soybean; [1]) was 3, the “Plant response rating, Soybean” value (soybean; [2]) was 4 and the “Soybean plant response rating” value (soybean; [3]) was 4. For the same compound, the “Soybean plant response rating” value (soybean; [4]) was 0, the “Soybean plant response rating” value (soybean; [5]) was 0 and the “Plant response rating, Soybean” value (soybean; [6]) was 0. For the same compound, the “Plant response rating, Soybean” value (soybean; [7]) was 2, the “Plant response rating, Wild oats” value (wild oat; [1]) was 0 and the “Plant response rating, Wild oats” value (wild oat; [2]) was 0. The “Wild oats plant response rating” value (wild oat; [3]) was 5, the “Wild oats plant response rating” value (wild oat; [4]) was 2 and the “Wild oats plant response rating” value (wild oat; [5]) was 6. For the same compound, the “Plant response rating, Wild oats” value (wild oat; [6]) was 9, the “Plant response rating, Wild oats” value (wild oat; [7]) was 9 and the “Plant response rating, Giant foxtail” value (giant foxtail; [1]) was 5. The “Plant response rating, Giant foxtail” value (giant foxtail; [2]) was 8, the “Giant foxtail plant response rating” value (giant foxtail; [3]) was 8 and the “Plant response rating, Giant foxtail” value (giant foxtail; [8]) was 9. For the same compound, the “Giant foxtail plant response rating” value (giant foxtail; [4]) was 9, the “Giant foxtail plant response rating” value (giant foxtail; [5]) was 9 and the “Plant response rating, Giant foxtail” value (giant foxtail; [6]) was 10. The “Plant response rating, Giant foxtail” value (giant foxtail; [7]) was 10, the “Plant response rating, Corn” value (corn; [1]) was 0 and the “Plant response rating, Corn” value (corn; [2]) was 0. For the same compound, the “Corn plant response rating” value (corn; [3]) was 0, the “Plant response rating, Corn” value (corn; [8]) was 2 and the “Corn plant response rating” value (corn; [4]) was 0. The “Plant response rating, Corn” value (corn; [6]) was 2, the “Plant response rating, Corn” value (corn; [7]) was 8 and the “Plant response rating, Redroot pigweed” value (pigweed; [1]) was 0. The “Plant response rating, Redroot pigweed” value (pigweed; [2]) was 0, the “Redroot pigweed plant response rating” value (pigweed; [3]) was 3 and the “Redroot pigweed plant response rating” value (pigweed; [4]) was 10. For the same compound, the “Redroot pigweed plant response rating” value (pigweed; [5]) was 10, the “Plant response rating, Redroot pigweed” value (pigweed; [6]) was 10 and the “Plant response rating, Redroot pigweed” value (pigweed; [7]) was 10. The “Plant response rating, Rape” value (rape; [1]) was 2, the “Plant response rating, Rape” value (rape; [2]) was 5 and the “Rape plant response rating” value (rape; [3]) was 7. The “Plant response rating, Rape” value (rape; [8]) was 9, the “Rape plant response rating” value (rape; [4]) was 6 and the “Rape plant response rating” value (rape; [5]) was 6. The “Plant response rating, Rape” value (rape; [6]) was 7, the “Plant response rating, Rape” value (rape; [7]) was 9 and the “Plant response rating, Cocklebur” value (cocklebur; [1]) was 2. For the same compound, the “Plant response rating, Cocklebur” value (cocklebur; [2]) was 2, the “Cocklebur plant response rating” value (cocklebur; [3]) was 3 and the “Plant response rating, Cocklebur” value (cocklebur; [8]) was 3. The “Cocklebur plant response rating” value (cocklebur; [4]) was 0, the “Cocklebur plant response rating” value (cocklebur; [5]) was 0 and the “Plant response rating, Cocklebur” value (cocklebur; [6]) was 0. The “Plant response rating, Cocklebur” value (cocklebur; [7]) was 0, the “Plant response rating, Bedstraw” value (bedstraw; [1]) was 5 and the “Plant response rating, Bedstraw” value (bedstraw; [2]) was 7. For the same compound, the “Bedstraw plant response rating” value (bedstraw; [3]) was 9, the “Bedstraw plant response rating” value (bedstraw; [4]) was 9 and the “Bedstraw plant response rating” value (bedstraw; [5]) was 8. The “Plant response rating, Bedstraw” value (bedstraw; [6]) was 7, the “Plant response rating, Bedstraw” value (bedstraw; [7]) was 9 and the “Plant response rating, Morningglory” value (morningglory; [1]) was 1. The “Plant response rating, Morningglory” value (morningglory; [2]) was 4, the “Morningglory plant response rating” value (morningglory; [3]) was 4 and the “Plant response rating, Morningglory” value (morningglory; [8]) was 7. The “Morningglory plant response rating” value (morningglory; [4]) was 0, the “Morningglory plant response rating” value (morningglory; [5]) was 0 and the “Plant response rating, Morningglory” value (morningglory; [6]) was 0. For the same compound, the “Plant response rating, Morningglory” value (morningglory; [7]) was 6, the “Plant response rating, Wheat” value (wheat; [1]) was 0 and the “Plant response rating, Wheat” value (wheat; [2]) was 0. The “Wheat plant response rating” value (wheat; [3]) was 2, the “Wheat plant response rating” value (wheat; [4]) was 0 and the “Wheat plant response rating” value (wheat; [5]) was 0. For the same compound, the “Plant response rating, Wheat” value (wheat; [6]) was 3, the “Plant response rating, Wheat” value (wheat; [7]) was 4 and the “Plant response rating, Nutsedge” value (purple nutsedge; [1]) was 0. For the same compound, the “Plant response rating, Nutsedge” value (purple nutsedge; [2]) was 0, the “Nutsedge plant response rating” value (purple nutsedge; [4]) was 0 and the “Nutsedge plant response rating” value (purple nutsedge; [5]) was 0. For the same compound, the “Plant response rating, Nutsedge” value (purple nutsedge; [6]) was 3, the “Plant response rating, Nutsedge” value (purple nutsedge; [7]) was 4 and the “Plant response rating, Sugarbeets” value (sugar beet; [1]) was 3. The “Plant response rating, Sugarbeets” value (sugar beet; [2]) was 3, the “Sugarbeets plant response rating” value (sugar beet; [3]) was 7 and the “Sugarbeets plant response rating” value (sugar beet; [4]) was 3. The “Sugarbeets plant response rating” value (sugar beet; [5]) was 5, the “Plant response rating, Sugarbeets” value (sugar beet; [6]) was 8 and the “Plant response rating, Sugarbeets” value (sugar beet; [7]) was 9. The “Plant response rating, Crabgrass” value (crabgrass; [1]) was 4, the “Plant response rating, Crabgrass” value (crabgrass; [2]) was 9 and the “Crabgrass plant response rating” value (crabgrass; [3]) was 8. For the same compound, the “Plant response rating, Crabgrass” value (crabgrass; [8]) was 9, the “Crabgrass plant response rating” value (crabgrass; [4]) was 9 and the “Crabgrass plant response rating” value (crabgrass; [5]) was 9. The “Plant response rating, Crabgrass” value (crabgrass; [6]) was 9, the “Plant response rating, Crabgrass” value (crabgrass; [7]) was 9 and the “Plant response rating, B. signalgrass” value (surinam grass; [1]) was 0. The “Plant response rating, B. signalgrass” value (surinam grass; [2]) was 0, the “B. signalgrass plant response rating” value (surinam grass; [3]) was 2 and the “Plant response rating, B. signalgrass” value (surinam grass; [8]) was 8. The “B. signalgrass plant response rating” value (surinam grass; [4]) was 4, the “B. signalgrass plant response rating” value (surinam grass; [5]) was 8 and the “Plant response rating, B. signalgrass” value (surinam grass; [6]) was 9. The “Plant response rating, B. signalgrass” value (surinam grass; [7]) was 9, the “Plant response rating, Blackgrass” value (blackgrass; [1]) was 2 and the “Plant response rating, Blackgrass” value (blackgrass; [2]) was 3. For the same compound, the “Blackgrass plant response rating” value (blackgrass; [3]) was 7, the “Blackgrass plant response rating” value (blackgrass; [4]) was 9 and the “Plant response rating, Blackgrass” value (blackgrass; [6]) was 9. The “Plant response rating, Blackgrass” value (blackgrass; [7]) was 8, the “Plant response rating, Velvetleaf” value (velvetleaf; [1]) was 0 and the “Plant response rating, Velvetleaf” value (velvetleaf; [2]) was 0. For the same compound, the “Velvetleaf plant response rating” value (velvetleaf; [3]) was 2, the “Velvetleaf plant response rating” value (velvetleaf; [4]) was 0 and the “Plant response rating, Velvetleaf” value (velvetleaf; [6]) was 3. The “Plant response rating, Velvetleaf” value (velvetleaf; [7]) was 7.
With `CC(C)N(C(=O)n1oc(=O)n(CBr)c1=O)c1ccccc1` [Compound 755] the “Plant response rating, Soybean” value (soybean; [5]) was 0, the “Soybean plant response rating” value (soybean; [9]) was 0 and the “Soybean plant response rating” value (soybean; [10]) was 0. For the same compound, the “Soybean plant response rating” value (soybean; [11]) was 0, the “Plant response rating, Wild oats” value (wild oat; [5]) was 0 and the “Wild oats plant response rating” value (wild oat; [9]) was 0. The “Wild oats plant response rating” value (wild oat; [10]) was 0, the “Wild oats plant response rating” value (wild oat; [11]) was 0 and the “Plant response rating, Giant foxtail” value (giant foxtail; [5]) was 0. For the same compound, the “Giant foxtail plant response rating” value (giant foxtail; [9]) was 0, the “Giant foxtail plant response rating” value (giant foxtail; [10]) was 0 and the “Giant foxtail plant response rating” value (giant foxtail; [11]) was 2. The “Plant response rating, Corn” value (corn; [5]) was 0, the “Corn plant response rating” value (corn; [9]) was 0 and the “Corn plant response rating” value (corn; [10]) was 0. For the same compound, the “Corn plant response rating” value (corn; [11]) was 0, the “Plant response rating, Redroot pigweed” value (pigweed; [5]) was 0 and the “Redroot pigweed plant response rating” value (pigweed; [9]) was 0. For the same compound, the “Redroot pigweed plant response rating” value (pigweed; [10]) was 0, the “Redroot pigweed plant response rating” value (pigweed; [11]) was 0 and the “Plant response rating, Rape” value (rape; [5]) was 0. The “Rape plant response rating” value (rape; [9]) was 0, the “Rape plant response rating” value (rape; [10]) was 0 and the “Rape plant response rating” value (rape; [11]) was 0. For the same compound, the “Plant response rating, Cocklebur” value (cocklebur; [5]) was 0, the “Cocklebur plant response rating” value (cocklebur; [9]) was 0 and the “Cocklebur plant response rating” value (cocklebur; [10]) was 0. For the same compound, the “Cocklebur plant response rating” value (cocklebur; [11]) was 0, the “Plant response rating, Bedstraw” value (bedstraw; [5]) was 0 and the “Bedstraw plant response rating” value (bedstraw; [9]) was 0. For the same compound, the “Bedstraw plant response rating” value (bedstraw; [10]) was 0, the “Bedstraw plant response rating” value (bedstraw; [11]) was 0 and the “Plant response rating, Morningglory” value (morningglory; [5]) was 0. For the same compound, the “Morningglory plant response rating” value (morningglory; [9]) was 0, the “Morningglory plant response rating” value (morningglory; [10]) was 0 and the “Morningglory plant response rating” value (morningglory; [11]) was 0. The “Plant response rating, Wheat” value (wheat; [5]) was 0, the “Wheat plant response rating” value (wheat; [9]) was 0 and the “Wheat plant response rating” value (wheat; [10]) was 0. For the same compound, the “Wheat plant response rating” value (wheat; [11]) was 0, the “Nutsedge plant response rating” value (purple nutsedge; [9]) was 0 and the “Nutsedge plant response rating” value (purple nutsedge; [10]) was 0. For the same compound, the “Nutsedge plant response rating” value (purple nutsedge; [11]) was 0, the “Plant response rating, Sugarbeets” value (sugar beet; [5]) was 0 and the “Sugarbeets plant response rating” value (sugar beet; [9]) was 0. For the same compound, the “Sugarbeets plant response rating” value (sugar beet; [10]) was 0, the “Sugarbeets plant response rating” value (sugar beet; [11]) was 0 and the “Plant response rating, Crabgrass” value (crabgrass; [5]) was 0. For the same compound, the “Crabgrass plant response rating” value (crabgrass; [9]) was 0, the “Crabgrass plant response rating” value (crabgrass; [10]) was 0 and the “Crabgrass plant response rating” value (crabgrass; [11]) was 0. For the same compound, the “B. signalgrass plant response rating” value (surinam grass; [4]) was 0, the “Plant response rating, B. signalgrass” value (surinam grass; [5]) was 0 and the “B. signalgrass plant response rating” value (surinam grass; [9]) was 0. The “B. signalgrass plant response rating” value (surinam grass; [11]) was 0, the “Plant response rating, Blackgrass” value (blackgrass; [5]) was 0 and the “Blackgrass plant response rating” value (blackgrass; [9]) was 0. The “Blackgrass plant response rating” value (blackgrass; [10]) was 0, the “Blackgrass plant response rating” value (blackgrass; [11]) was 0 and the “Plant response rating, Velvetleaf” value (velvetleaf; [5]) was 0. The “Velvetleaf plant response rating” value (velvetleaf; [9]) was 0, the “Velvetleaf plant response rating” value (velvetleaf; [10]) was 0 and the “Velvetleaf plant response rating” value (velvetleaf; [11]) was 0.
